In US11051515B2, “3-acyl-benzamides and their use as herbicides” (Bayer Aktiengesellschaft, priority 2017, dated 2021):

Tests used:
ALOMY [1] = test: Pre-emergence action against ALOMY; format: in vivo, Alopecurus myosuroides; conditions: dosage 320 g/ha, pre-emergence, scored visually after 3 weeks vs untreated controls, 100% = plants have died, 0% = like control plants
Outline: (§1)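 Seeds sown in sandy loam in wood-fiber pots and covered with soil. Greenhouse growth; visual damage scored after 3 weeks versus untreated controls (100% = dead, 0% = like control).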

AVEFA [2] = test: Pre-emergence action against AVEFA; format: in vivo, Avena fatua; conditions: dosage 320 g/ha, scored visually after 3 weeks vs untreated controls
Outline: as §1

CYPES [3] = test: Pre-emergence action against CYPES; format: in vivo, Cyperus esculentus; conditions: pre-emergence, dosage 320 g/ha, scored visually after 3 weeks vs untreated controls
Outline: as §1

ECHCG [4] = test: Pre-emergence action against ECHCG; format: in vivo, Echinochloa crus-galli; conditions: pre-emergence, dosage 320 g/ha, scored visually after 3 weeks vs untreated controls
Outline: as §1

SETVI [5] = test: Pre-emergence action against SETVI; format: in vivo, Setaria viridis; conditions: pre-emergence, dosage 320 g/ha, scored visually after 3 weeks vs untreated controls
Outline: as §1

ABUTH [6] = test: Pre-emergence action against ABUTH; format: in vivo, Abutilon theophrasti; conditions: pre-emergence, dosage 320 g/ha, scored visually after 3 weeks vs untreated controls
Outline: as §1

AMARE [7] = test: Pre-emergence action against AMARE; format: in vivo, Amaranthus retroflexus; conditions: pre-emergence, dosage 320 g/ha, scored visually after 3 weeks vs untreated controls
Outline: as §1

MATIN [8] = test: Pre-emergence action against MATIN; format: in vivo, Matricaria inodora; conditions: Dosage 320 g/ha, pre-emergence
Outline: as §1

PHBPU [9] = test: Pre-emergence action against PHBPU; format: in vivo, Pharbitis purpurea; conditions: Ipomoea purpurea, 504 h; Dosage 320 g/ha, pre-emergence
Outline: as §1

VIOTR [10] = test: Pre-emergence action against VIOTR; format: in vivo, Viola tricolor; conditions: Dosage 320 g/ha, pre-emergence
Outline: as §1

VERPE [11] = test: Pre-emergence action against VERPE; format: in vivo, Veronica persica; conditions: Dosage 320 g/ha, pre-emergence
Outline: as §1

ALOMY [12] = test: Post-emergence action against ALOMY; format: in vivo, Alopecurus myosuroides; conditions: Alopecurus myosuroides, 504 h; Dosage 80 g/ha, post-emergence
Outline: (§2)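 Post-emergence foliar spray on greenhouse plants at the one-leaf stage, using wettable-powder or emulsion-concentrate formulations in water (600 to […], plus 0.2% wetting agent). Damage scored by eye roughly 3 weeks later against untreated plants: 0% = like control, 100% = dead.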

AVEFA [13] = test: Post-emergence action against AVEFA; format: in vivo, Avena fatua; conditions: Avena fatua, 504 h; post-emergence, dosage 80 g/ha, visual assessment about 3 weeks after treatment vs untreated controls; read-out: Post-emergence action against AVEFA (herbicidal action in percent)
Outline: as §2

CYPES [14] = test: Post-emergence action against CYPES; format: in vivo, Cyperus esculentus; conditions: post-emergence, dosage 80 g/ha, visual assessment about 3 weeks after treatment vs untreated controls
Outline: as §2

ECHCG [15] = test: Post-emergence action against ECHCG; format: in vivo, Echinochloa crus-galli; conditions: post-emergence, dosage 80 g/ha, visual assessment about 3 weeks after treatment vs untreated controls
Outline: as §2

LOLMU [16] = test: Post-emergence action against LOLMU; format: in vivo, Lolium multiflorum; conditions: dosage 80 g/ha, visual assessment about 3 weeks after treatment vs untreated controls
Protocol: Seeds of monocotyledonous and dicotyledonous weed and crop plants are laid out in sandy loam soil in wood-fiber pots, covered with soil and cultivated in a greenhouse under good growth conditions. 2 to 3 weeks after sowing, the test plants are treated at the one-leaf stage. The compounds of the invention, formulated in the form of wettable powders (WP) or as emulsion concentrates (EC), are then sprayed onto the green parts of the plants in the form of an aqueous suspension or emulsion at a water application rate equating to […], with addition of 0.2% wetting agent. After the test plants have been left to stand in the greenhouse under optimal growth conditions for about 3 weeks, the action of the preparations is assessed visually in comparison to untreated controls (herbicidal action in percent (%): 100% activity=the plants have died, 0% activity=like control plants). […] At the same time, inventive compounds leave Gramineae crops such as barley, wheat, rye, millet/Sorghum, corn or rice virtually undamaged when applied post-emergence, even at high active ingredient dosages. In addition, some substances are also harmless to dicotyledonous crops such as soya, cotton, oilseed rape, sugar beet or potatoes. Some of the compounds according to the invention have high selectivity and are therefore suitable for controlling unwanted vegetation in agricultural crops by the post-emergence method. The data of Tables B18 to B34 below illustrate, in an exemplary manner, the […] herbicidal action of the compounds according to the invention, the herbicidal activity being stated in percent.

SETVI [17] = test: Post-emergence action against SETVI; format: in vivo, Setaria viridis; conditions: post-emergence, dosage 80 g/ha, visual assessment about 3 weeks after treatment vs untreated controls
Outline: as §2

ABUTH [18] = test: Post-emergence action against ABUTH; format: in vivo, Abutilon theophrasti; conditions: post-emergence, dosage 80 g/ha, visual assessment about 3 weeks after treatment vs untreated controls
Outline: as §2

AMARE [19] = test: Post-emergence action against AMARE; format: in vivo, Amaranthus retroflexus; conditions: post-emergence, dosage 80 g/ha, visual assessment about 3 weeks after treatment vs untreated controls
Outline: as §2

MATIN [20] = test: Post-emergence action against MATIN; format: in vivo, Matricaria inodora; conditions: post-emergence, dosage 80 g/ha, visual assessment about 3 weeks after treatment vs untreated controls
Outline: as §2

PHBPU [21] = test: Post-emergence action against PHBPU; format: in vivo, Pharbitis purpurea; conditions: post-emergence, dosage 80 g/ha
Outline: as §2

POLCO [22] = test: Post-emergence action against POLCO; format: in vivo, Polygonum convolvulus; conditions: Fallopia convolvulus, 504 h; post-emergence, dosage 80 g/ha
Outline: as §2

STEME [23] = test: Post-emergence action against STEME; format: in vivo, Stellaria media; conditions: post-emergence, dosage 80 g/ha
Outline: as §2

VIOTR [24] = test: Post-emergence action against VIOTR; format: in vivo, Viola tricolor; conditions: post-emergence, dosage 80 g/ha
Outline: as §2

VERPE [25] = test: Post-emergence action against VERPE; format: in vivo, Veronica persica; conditions: dosage 80 g/ha
Outline: as §2

LOLMU [26] = test: Pre-emergence action against LOLMU; format: in vivo, Lolium multiflorum; conditions: dosage 320 g/ha, scored visually after 3 weeks vs untreated controls
Outline: as §1

POLCO [27] = test: Pre-emergence action against POLCO; format: in vivo, Polygonum convolvulus; conditions: Dosage 320 g/ha, pre-emergence
Outline: as §1

STEME [28] = test: Pre-emergence action against STEME; format: in vivo, Stellaria media; conditions: Dosage 320 g/ha, pre-emergence
Outline: as §1

Work on `CCC(=O)c1c(C(F)(F)F)ccc(C(=O)Nc2nnnn2C)c1Cl` [1-138] yielded a pest or weed control at 320 g/ha (ALOMY [1]; Alopecurus myosuroides, 504 h, read-out: Pre-emergence action against ALOMY (herbicidal activity in percent)) of 100%, a pest or weed control at 320 g/ha (AVEFA [2]; Avena fatua, 504 h, read-out: Pre-emergence action against AVEFA (herbicidal activity)) of 100% and a pest or weed control at 320 g/ha (CYPES [3]; Cyperus esculentus, 504 h, read-out: Pre-emergence action against CYPES (herbicidal activity)) of 100%. It also gave a pest or weed control at 320 g/ha (ECHCG [4]; Echinochloa crus-galli, 504 h, read-out: Pre-emergence action against ECHCG (herbicidal activity)) of 100%, a pest or weed control at 320 g/ha (SETVI [5]; Setaria viridis, 504 h, read-out: SETVI (Table B8, pre-emergence herbicidal activity)) of 100% and a pest or weed control at 320 g/ha (ABUTH [6]; Abutilon theophrasti, 504 h, read-out: Pre-emergence action against ABUTH (herbicidal activity)) of 100%. The pest or weed control at 320 g/ha (AMARE [7]; Amaranthus retroflexus, 504 h, read-out: Pre-emergence action against AMARE (herbicidal activity)) was 100%, the pest or weed control at 320 g/ha (MATIN [8]; Tripleurospermum inodorum, 504 h) was 100% and the pest or weed control at 320 g/ha (PHBPU [9]) was 90%. It also gave a pest or weed control at 320 g/ha (VIOTR [10]; Viola tricolor, 504 h) of 100%, a pest or weed control at 320 g/ha (VERPE [11]; Veronica persica, 504 h) of 100% and a pest or weed control at 80 g/ha (ALOMY [12]) of 100%. For the same compound, the pest or weed control at 80 g/ha (AVEFA [13]) was 100%, the pest or weed control at 80 g/ha (CYPES [14]; Cyperus esculentus, 504 h, read-out: Post-emergence action against CYPES (herbicidal action in percent)) was 90% and the pest or weed control at 80 g/ha (ECHCG [15]; Echinochloa crus-galli, 504 h, read-out: Post-emergence action against ECHCG (herbicidal action in percent)) was 90%. The pest or weed control at 80 g/ha (LOLMU [16]; Lolium multiflorum, 504 h, read-out: Post-emergence action against LOLMU (herbicidal action in percent)) was 100%, the pest or weed control at 80 g/ha (SETVI [17]; Setaria viridis, 504 h, read-out: Post-emergence action against SETVI (herbicidal action in percent)) was 90% and the pest or weed control at 80 g/ha (ABUTH [18]; Abutilon theophrasti, 504 h, read-out: Post-emergence action against ABUTH (herbicidal action in percent)) was 80%. It also gave a pest or weed control at 80 g/ha (AMARE [19]; Amaranthus retroflexus, 504 h, read-out: Post-emergence action against AMARE (herbicidal action in percent)) of 80%, a pest or weed control at 80 g/ha (MATIN [20]; Tripleurospermum inodorum, 504 h, read-out: Post-emergence action against MATIN (herbicidal action in percent)) of 100% and a pest or weed control at 80 g/ha (PHBPU [21]; Ipomoea purpurea, 504 h) of 100%. The pest or weed control at 80 g/ha (POLCO [22]) was 80%, the pest or weed control at 80 g/ha (STEME [23]; Stellaria media, 504 h) was 100% and the pest or weed control at 80 g/ha (VIOTR [24]; Viola tricolor, 504 h) was 100%. For the same compound, the pest or weed control at 80 g/ha (VERPE [25]; Veronica persica, 504 h) was 90%.

`CCn1nnnc1NC(=O)c1ccc(C(F)(F)F)c(C(C)=O)c1C` [2-14] was tested, and the “Pre-emergence action against ALOMY (herbicidal activity in percent)” value (ALOMY [1]) was 80%, the “Pre-emergence action against AVEFA (herbicidal activity)” value (AVEFA [2]) was 90% and the “Pre-emergence action against CYPES (herbicidal activity)” value (CYPES [3]) was 90%. The “Pre-emergence action against ECHCG (herbicidal activity)” value (ECHCG [4]) was 100%, the “Pre-emergence action against LOLMU (herbicidal activity)” value (LOLMU [26]) was 80% and the “SETVI (Table B8, pre-emergence herbicidal activity)” value (SETVI [5]) was 100%. For the same compound, the “Pre-emergence action against ABUTH (herbicidal activity)” value (ABUTH [6]) was 100%, the “Pre-emergence action against AMARE (herbicidal activity)” value (AMARE [7]) was 100% and the “Pre-emergence action against MATIN” value (MATIN [8]) was 100%. For the same compound, the “Pre-emergence action against POLCO” value (POLCO [27]) was 80%, the “Pre-emergence action against STEME” value (STEME [28]) was 100% and the “Pre-emergence action against VIOTR” value (VIOTR [10]) was 100%. For the same compound, the “Pre-emergence action against VERPE” value (VERPE [11]) was 100%, the “Post-emergence action against CYPES (herbicidal action in percent)” value (CYPES [14]) was 90% and the “Post-emergence action against ECHCG (herbicidal action in percent)” value (ECHCG [15]) was 100%. The “Post-emergence action against LOLMU (herbicidal action in percent)” value (LOLMU [16]) was 80%, the “Post-emergence action against SETVI (herbicidal action in percent)” value (SETVI [17]) was 90% and the “Post-emergence action against ABUTH (herbicidal action in percent)” value (ABUTH [18]) was 100%. The “Post-emergence action against AMARE (herbicidal action in percent)” value (AMARE [19]) was 100%, the “Post-emergence action against MATIN (herbicidal action in percent)” value (MATIN [20]) was 100% and the “Post-emergence action against PHBPU” value (PHBPU [21]) was 90. The “Post-emergence action against STEME” value (STEME [23]) was 100, the “Post-emergence action against VIOTR” value (VIOTR [24]) was 100 and the “Post-emergence action against VERPE” value (VERPE [25]) was 80.
